Results on 18 compounds are retold here after ChEMBL document CHEMBL1129562, “Non-peptide cholecystokinin-B/gastrin receptor antagonists based on bicyclic, heteroaromatic skeletons” (J Med Chem, 1996).

Experiment [1] concerns the target T1, Cholecystokinin receptor type A (Cavia porcellus, UniProt Q63931).
T1 sequence (Q63931 whole entry): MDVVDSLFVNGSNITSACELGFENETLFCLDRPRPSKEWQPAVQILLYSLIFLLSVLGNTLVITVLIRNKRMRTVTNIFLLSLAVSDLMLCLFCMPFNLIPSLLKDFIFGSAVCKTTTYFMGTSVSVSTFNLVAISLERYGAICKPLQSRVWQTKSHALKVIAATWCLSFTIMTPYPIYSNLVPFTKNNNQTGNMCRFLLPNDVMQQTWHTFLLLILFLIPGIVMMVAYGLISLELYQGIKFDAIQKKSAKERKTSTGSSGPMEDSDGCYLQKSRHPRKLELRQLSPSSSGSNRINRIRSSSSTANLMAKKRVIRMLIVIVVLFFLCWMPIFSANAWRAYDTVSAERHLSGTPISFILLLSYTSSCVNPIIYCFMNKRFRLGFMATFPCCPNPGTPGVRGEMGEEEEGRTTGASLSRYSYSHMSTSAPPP
Nature of the experiment: In vitro inhibitory activity against Cholecystokinin type A receptor using [125I]BH-CCK-8S as radioligand in guinea pig pancreatic cells.

In experiment [2] the target is T2, Gastrin/cholecystokinin type B receptor (Mus musculus, UniProt P56481).
T2 sequence (P56481 whole entry): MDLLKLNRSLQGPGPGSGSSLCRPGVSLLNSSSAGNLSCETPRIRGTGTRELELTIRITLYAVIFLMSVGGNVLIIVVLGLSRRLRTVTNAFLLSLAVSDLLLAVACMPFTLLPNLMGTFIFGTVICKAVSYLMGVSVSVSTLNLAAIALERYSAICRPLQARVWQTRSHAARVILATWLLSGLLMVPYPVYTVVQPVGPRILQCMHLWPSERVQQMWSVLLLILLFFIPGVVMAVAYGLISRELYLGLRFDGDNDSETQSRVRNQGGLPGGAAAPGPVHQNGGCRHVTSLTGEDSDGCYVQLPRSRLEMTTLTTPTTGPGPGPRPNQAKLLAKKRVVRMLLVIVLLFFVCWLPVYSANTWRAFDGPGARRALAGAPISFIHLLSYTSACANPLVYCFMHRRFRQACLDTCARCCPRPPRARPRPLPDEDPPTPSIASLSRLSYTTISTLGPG
Nature of the experiment: In vitro inhibitory activity against Cholecystokinin type B receptor using [125I]BH-CCK-8S as radioligand in mouse cortical membranes. It counts as cell membranes.

For experiment [3], the target named is T3, Gastrin/cholecystokinin type B receptor (Rattus norvegicus) (UniProt P30553).
T3 sequence (whole entry): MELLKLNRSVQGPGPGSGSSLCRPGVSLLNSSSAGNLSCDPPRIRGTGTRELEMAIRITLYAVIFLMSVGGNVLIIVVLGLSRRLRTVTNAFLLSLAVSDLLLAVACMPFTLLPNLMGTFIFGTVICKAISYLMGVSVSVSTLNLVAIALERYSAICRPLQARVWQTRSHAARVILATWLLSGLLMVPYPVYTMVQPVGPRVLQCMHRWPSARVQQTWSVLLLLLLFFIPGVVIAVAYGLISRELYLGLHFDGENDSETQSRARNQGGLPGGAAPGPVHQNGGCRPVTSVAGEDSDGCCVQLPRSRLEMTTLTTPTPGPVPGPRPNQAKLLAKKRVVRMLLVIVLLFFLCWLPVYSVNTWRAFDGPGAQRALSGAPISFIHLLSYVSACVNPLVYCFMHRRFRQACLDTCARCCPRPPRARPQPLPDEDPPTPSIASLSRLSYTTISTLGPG
Nature of the experiment: Intravenous activity against Cholecystokinin type B receptor in Gosh and Schild rat at a dsoe of 0.025 umol/kg (in vivo). The experiment is classed as functional, organism-based.

In the next experiment the test system is Canis familiaris. Nature of the experiment: Intravenous activity against CCKB/Gastrin antagonist in gastric fistula dog at dose 0.1 uM/kg (in vivo). It counts as functional, Canis lupus familiaris, Stomach.

Take `O=C(O)c1cc(NC(=O)[C@H](Cc2ccc(O)cc2)NC(=O)c2cc3[nH]cnc3cc2C(=O)NCC23CC4CC(CC(C4)C2)C3)cc(C(=O)O)c1`: the inhibition constant Ki in experiment [1] is 2820 nM.

In the case of `O=C(O)c1cc(NC(=O)[C@H](Cc2ccccc2F)NC(=O)c2cc3[nH]cnc3cc2C(=O)NCC23CC4CC(CC(C4)C2)C3)cc(C(=O)O)c1`, the Ki in experiment [2] was 4.47 nM; in experiment [1], 2570 nM.

`O=C(NCC1CCCCCC1)c1cc2nc[nH]c2cc1C(=O)N[C@@H](Cc1ccccc1F)C(=O)Nc1cc(-c2nn[nH]n2)cc(-c2nn[nH]n2)c1`: the inhibition constant Ki in experiment [2] was 3.89 nM; in experiment [1], 912 nM.

As for `O=C(O)c1cc(NC(=O)[C@H](Cc2ccccc2)NC(=O)c2cc3cc[nH]c3cc2C(=O)NCC2CCCCCC2)cc(C(=O)O)c1`, the results for the Ki in experiment [2] and in experiment [1] were 15.1 nM and 3160 nM, respectively.

Consider `O=C(O)c1cc(NC(=O)[C@H](Cc2ccccc2)NC(=O)c2cc3[nH]ccc3cc2C(=O)NCC23CC4CC(CC(C4)C2)C3)cc(C(=O)O)c1`, for which the inhibition constant (Ki) in experiment [2] was 13.5 nM; in experiment [1] it was 3390 nM.

On to `O=C(O)c1cc(NC(=O)[C@H](Cc2ccccc2F)NC(=O)c2cc3cc[nH]c3cc2C(=O)NCC23CC4CC(CC(C4)C2)C3)cc(C(=O)O)c1`, for which the Ki was 0.741 nM in experiment [2] and 3310 nM in experiment [1].

As to `O=C(NCC12CC3CC(CC(C3)C1)C2)c1cc2[nH]ccc2cc1C(=O)N[C@@H](Cc1ccccc1)C(=O)Nc1cc(-c2nn[nH]n2)cc(-c2nn[nH]n2)c1`, the Ki in experiment [2] is 1.2 nM; in experiment [1] it was 1290 nM.

With `O=C(O)C1C2c3ccccc3C(c3ccccc32)C1C(=O)NCC12CC3CC(CC(C3)C1)C2` (stereo not drawn), the figures for the Ki in experiment [2] and in experiment [1] were 537 nM and 8320 nM, respectively.

On to `O=C(NCC12CC3CC(CC(C3)C1)C2)c1cc2nc[nH]c2cc1C(=O)N[C@@H](Cc1ccccc1)C(=O)Nc1cc(-c2nn[nH]n2)cc(-c2nn[nH]n2)c1`, for which the Ki was 4.07 nM in experiment [2] and 891 nM in experiment [1].

`O=C(O)c1cc(NC(=O)[C@H](Cc2ccccc2)NC(=O)c2cc3ccoc3cc2C(=O)NCC23CC4CC(CC(C4)C2)C3)cc(C(=O)O)c1`: the inhibitory constant (Ki) in experiment [2] was 5.37 nM; in experiment [1], 3800 nM.

Take `O=C(O)c1cc(NC(=O)[C@H](Cc2ccccc2)NC(=O)c2cc3ccsc3cc2C(=O)NCC23CC4CC(CC(C4)C2)C3)cc(C(=O)O)c1`: the Ki was 1.23 nM in experiment [2] and 2240 nM in experiment [1].

On to `O=C(O)c1cc(NC(=O)[C@H](Cc2ccccc2)NC(=O)c2cc3cc[nH]c3cc2C(=O)NCC23CC4CC(CC(C4)C2)C3)cc(C(=O)O)c1`, for which the Ki in experiment [2] was 1.1 nM; in experiment [1] it was 3630 nM. The compound further yielded an inhibition in experiment [3] of 97%. This compound also came in with an Inhibition in the experiment with Canis familiaris of 79%.

As for `O=C(O)c1cc(NC(=O)[C@H](Cc2ccccc2)NC(=O)c2cc3[nH]cnc3cc2C(=O)NCC23CC4CC(CC(C4)C2)C3)cc(C(=O)O)c1`, the Ki in experiment [2] is 5.25 nM; in experiment [1], 1480 nM. The compound also gave an inhibition in experiment [3] of 61%.

On to `O=C(O)c1cc2ccccc2cc1C(=O)NCC12CC3CC(CC(C3)C1)C2`, for which the inhibitory constant (Ki) in experiment [2] is 2880 nM; in experiment [1], 11700 nM.

As to `O=C(O)c1cc(NC(=O)[C@H](Cc2ccccc2)NC(=O)c2cc3ccccc3cc2C(=O)NCC23CC4CC(CC(C4)C2)C3)cc(C(=O)O)c1`, the inhibitory constant (Ki) in experiment [2] was 13.2 nM; in experiment [1], 851 nM.

Turning to `O=C(O)c1cc(NC(=O)[C@H](Cc2ccccc2F)NC(=O)c2cc3[nH]cnc3cc2C(=O)NCC2CCCCCC2)cc(C(=O)O)c1`, the Ki is 7.59 nM in experiment [2] and 7410 nM in experiment [1].

Regarding `O=C(NCC12CC3CC(CC(C3)C1)C2)c1cc2ccccc2cc1C(=O)N1CCC[C@@H]1C(=O)O`, the Ki in experiment [2] was 339 nM; in experiment [1], 3550 nM.

`O=C(NCC12CC3CC(CC(C3)C1)C2)C1C2c3ccccc3C(c3ccccc32)C1C(=O)N1CCC[C@@H]1C(=O)O` (stereo partly drawn): the inhibition constant (Ki) is 891 nM in experiment [2] and 8130 nM in experiment [1].
